What is called EC50 is the midpoint of the concentration-response curve. In general, Emax refers to the greatest response seen or fitted, relative to the assay's reference. In general, Ki refers to the dissociation constant of the complex between target and ligand, obtained from inhibition or displacement.

Structures are written as SMILES.

Experiment [1] addresses T1, μ-opioid receptors (Homo sapiens (Human), UniProt P35372). Nature of the experiment: μ-opioid receptor [35S]GTPγS functional assay, HEK-293 cells. The experiment is classed as biochemical. The note with it: μ GTP; for EC50: read-out: Activity Response μ EC50 (nM) [mean ± SEM]; for Emax: relative to DAMGO, read-out: Activity Response μ Emax (%). As to the method: [^35S]GTPγS functional assays were conducted using freshly thawed μ-receptor membranes prepared from a cell line expressing recombinant μ opioid receptor in a HEK-293, CHO or U-2 OS cell background or purchased from a commercial source (Perkin Elmer, Shelton, Conn.; or DiscovRx, Fremont, Calif.). Assay reactions were prepared by sequentially adding the following reagents to binding buffer (100 mM NaCl, 10 mM MgCl2, 20 mM HEPES, pH 7.4) on ice (final concentrations indicated): membrane protein (0.026 mg/mL), saponin ([…]), GDP ([…]) and [^35S]GTPγS (0.20 nM; Perkin Elmer, Shelton, Conn.). The prepared membrane solution (190 μl/well) was transferred to 96-shallow well polypropylene plates containing 10 μl of 20× concentrated stock solutions of the agonist [D-Ala^2, N-methyl-Phe^4 Gly-ol^5]-enkephalin (DAMGO) prepared in dimethyl sulfoxide (DMSO). Plates were incubated for 30 min at about 25° C. with shaking. Reactions were terminated by rapid filtration onto 96-well Unifilter GF/B filter plates (Perkin Elmer, Shelton, Conn.) using a 96-well tissue harvester (Perkin Elmer, Shelton, Conn.) followed by three filtration washes with 200 μl of ice-cold wash buffer (10 mM NaH2PO4, 10 mM Na2HPO4, pH 7.4). Filter plates were subsequently dried at 50° C. for 2-3 hours. BetaScint scintillation cocktail (Perkin Elmer, Shelton, Conn.) was added (50 μl/well) and plates were counted using a Packard Top-Count for 1 min/well. Data were analyzed using the sigmoidal dose-response curve fitting functions in GraphPad PRISM v. 3.0, or an in-house function for non-linear, sigmoidal dose-response curve-fitting.
μ GTP EC50 is the concentration of a compound providing 50% of the maximal response for the compound at a μ-opioid receptor.
μ GTP Emax (%) is the maximal effect elicited by a compound relative to the effect elicited by DAMGO, a standard μ agonist. Generally, the μ GTP Emax (%) value measures the efficacy of a compound to treat or prevent pain or other Conditions.
(§1) The following tables provide results on the efficacy of binding and activity response of exemplified Compounds of the Invention at the μ- and κ-opioid receptors. In TABLE 3, binding affinity of certain Compounds of the Invention to the μ- and κ-opioid receptors was determined as described above. In TABLE 4, activity response of certain Compounds of the Invention to the μ- and κ-opioid receptors was determined as described above for functional assays using HEK-293 cells. In TABLE 5, activity response of certain Compounds of the Invention to the μ- and κ-opioid receptors was determined as described above using U-2 OS cells.

Experiment [2] has as its target T2, κ opioid receptor (Homo sapiens (Human), UniProt P41145). Nature of the experiment: κ-opioid receptor [35S]GTPγS functional assay, HEK-293 cells. The experiment is classed as biochemical. The note with it: κ GTP; for EC50: read-out: Activity Response κ EC50 (nM) [mean ± SEM]; for Emax: relative to U69,593, read-out: Activity Response κ Emax (%). As to the method:
(§2) Membranes from HEK-293 cells, CHO or U-2 OS cells expressing the recombinant human kappa opioid receptor (κ) were prepared by lysing cells in ice cold hypotonic buffer (2.5 mM MgCl2, 50 mM HEPES, pH 7.4) (10 mL/10 cm dish) followed by homogenization with a tissue grinder/Teflon pestle. Membranes were collected by centrifugation at 30,000×g for 15 min at 4° C. and pellets were resuspended in hypotonic buffer to a final concentration of 1-3 mg/mL. Protein concentrations were determined using the BioRad protein assay reagent with bovine serum albumen as standard. Aliquots of κ receptor membranes were stored at −80° C.
Functional [^35S]GTPγS binding assays were conducted as follows. κ opioid receptor membrane solution was prepared by sequentially adding final concentrations of 0.026 μg/μl κ membrane protein (in-house), 10 μg/mL saponin, 3 μM GDP and 0.20 nM [^35S]GTPγS to binding buffer (100 mM NaCl, 10 mM MgCl2, 20 mM HEPES, pH 7.4) on ice. The prepared membrane solution (190 μl/well) was transferred to 96-shallow well polypropylene plates containing 10 μl of 20× concentrated stock solutions of agonist prepared in DMSO. Plates were incubated for 30 min at a temperature of about 25° C. with shaking. Reactions were terminated by rapid filtration onto 96-well Unifilter GF/B filter plates (Perkin Elmer, Shelton, Conn.) using a 96-well tissue harvester (Packard) and followed by three filtration washes with 200 μl ice-cold binding buffer (10 mM NaH2PO4, 10 mM Na2HPO4, pH 7.4). Filter plates were subsequently dried at 50° C. for 2-3 hours. Fifty μl/well scintillation cocktail (Perkin Elmer, Shelton, Conn.) was added and plates were counted in a Packard Top-Count for 1 min/well.
κ GTP EC50 is the concentration of a compound providing 50% of the maximal response for the compound at a κ receptor.
κ GTP Emax (%) is the maximal effect elicited by a compound relative to the effect elicited by U69,593.
In TABLE 3, binding affinity of certain Compounds of the Invention to the μ- and κ-opioid receptors was determined as described above. In TABLE 4, activity response of certain Compounds of the Invention to the μ- and κ-opioid receptors was determined as described above for functional assays using HEK-293 cells. In TABLE 5, activity response of certain Compounds of the Invention to the μ- and κ-opioid receptors was determined as described above using U-2 OS cells.

Experiment [3] deals with T1, μ-opioid receptors. Nature of the experiment: μ-opioid receptor radioligand dose-displacement binding assay ([3H]-diprenorphine). The note with it: mean ± SEM, read-out: Binding Affinity Opioid Receptor Ki (nM) [mean ± SEM] μ. As to the method:
Radioligand dose-displacement binding assays for μ-opioid receptors used 0.3 nM [^3H]-diprenorphine (Perkin Elmer, Shelton, Conn.), with […] membrane protein/well in a final volume of 500 μl binding buffer (10 mM MgCl2, 1 mM EDTA, 5% DMSO, 50 mM HEPES, pH 7.4). Reactions were carried out in the absence or presence of increasing concentrations of unlabeled naloxone. All reactions were conducted in 96-deep well polypropylene plates for 2 hours at room temperature. Binding reactions were terminated by rapid filtration onto 96-well Unifilter GF/C filter plates (Perkin Elmer, Shelton, Conn.), presoaked in 0.5% polyethylenimine using a 96-well tissue harvester (Perkin Elmer, Shelton, Conn.) followed by performing three filtration washes with 500 μl of ice-cold binding buffer. Filter plates were subsequently dried at 50° C. for 2-3 hours. BetaScint scintillation cocktail (Perkin Elmer, Shelton, Conn.) was added (50 μl/well), and plates were counted using a Packard Top-Count for 1 min/well. The data were analyzed using the one-site competition curve fitting functions in GraphPad PRISM™ v. 3.0 or higher (San Diego, Calif.), or an in-house function for one-site competition curve-fitting.
as §1

Experiment [4] deals with T2, κ opioid receptor. Nature of the experiment: κ-opioid receptor [35S]GTPγS functional assay, U-2 OS cells. The experiment is classed as biochemical. To be noted: κ GTP; for EC50: read-out: Activity Response κ EC50 (nM) [mean ± SEM]; for Emax: relative to U69,593, read-out: Activity Response κ Emax (%). In general terms: GTPγS is a poorly hydrolysed GTP analogue; its binding reports G protein activation.

The target in experiment [5] is T1, μ-opioid receptors. Put plainly: μ-opioid receptor [35S]GTPγS functional assay, U-2 OS cells. The experiment is classed as biochemical. To be noted: μ GTP; for EC50: read-out: Activity Response μ EC50 (nM) [mean ± SEM]; for Emax: relative to DAMGO, read-out: Activity Response μ Emax (%).
For experiment [6], the target named is recombinant human kappa opioid receptor (κ) (Homo sapiens (Human), UniProt P41145). Nature of the experiment: κ-opioid receptor radioligand dose displacement binding assay ([3H]-U69,593). The note with it: mean ± SEM, read-out: Binding Affinity Opioid Receptor Ki (nM) [mean ± SEM] κ. The procedure: as §2
Radioligand dose displacement assays used 0.4 nM [^3H]-U69,593 (GE Healthcare, Piscataway, N.J.; 40 Ci/mmole) with 15 μg membrane protein (recombinant κ opioid receptor expressed in HEK 293 cells; in-house prep) in a final volume of 200 μl binding buffer (5% DMSO, 50 mM Trizma base, pH 7.4). Non-specific binding was determined in the presence of 10 μM unlabeled naloxone or U69,593. All reactions were performed in 96-well polypropylene plates for 1 hour at a temperature of about 25° C. Binding reactions were terminated by rapid filtration onto 96-well Unifilter GF/C filter plates (Perkin Elmer, Shelton, Conn.) presoaked in 0.5% polyethylenimine (Sigma). Harvesting was performed using a 96-well tissue harvester (Perkin Elmer, Shelton, Conn.) followed by five filtration washes with 200 μl ice-cold binding buffer. Filter plates were subsequently dried at 50° C. for 1-2 hours. Fifty μl/well scintillation cocktail (Perkin Elmer, Shelton, Conn.) was added and plates were counted in a Packard Top-Count for 1 min/well.
as §1

Turning to `CC(C)[C@@H]1C[C@H]2[C@H]3Cc4ccc(O)cc4[C@@]2(CCN3CC2CC2)CC1=O` [Compound 73, (4bS,7S,8aR,9R)-11-(cyclopropylmethyl)-3-hydroxy-7-isopropyl-8,8a,9,10-tetrahydro-5H-9,4b-(epiminoethano)phenanthren-6(7H)-one], the EC50 at μ-opioid receptors [1] is 2.85 ± 0.6 nM; at κ opioid receptor [2], 6.07 ± 1.92 nM; on κ opioid receptor [4], 1.92 ± 0.28 nM; at μ-opioid receptors [5] it was 0.84 ± 0.13 nM. The Emax amounted to 53.2 ± 5.71% at μ-opioid receptors [1], 61 ± 8.62% on κ opioid receptor [2], 101 ± 3.38% at κ opioid receptor [4] and 28.3 ± 4.06% at μ-opioid receptors [5]. The results for the Ki (at μ-opioid receptors [3]; in experiment [6]) were 1.98 ± 0.44 nM and 0.32 ± 0.11 nM, respectively.

Consider `COc1ccc2c(c1)[C@]13CCN(CC4CC4)[C@H](C2)[C@]1(O)C[C@H](CCO)C(=O)C3` [Compound 46, (4bR,7S,8aS,9R)-11-(cyclopropylmethyl)-8a-hydroxy-7-(2-hydroxyethyl)-3-methoxy-8,8a,9,10-tetrahydro-5H-9,4b-(epiminoethano)phenanthren-6(7H)-one], for which the Ki on μ-opioid receptors [3] came to 591 ± 80.3 nM; in experiment [6] it was 394 ± 85.2 nM. Further, the EC50 was 1020 ± 110 nM on κ opioid receptor [4] and 409 ± 88.5 nM at μ-opioid receptors [5]. Moreover, the Emax at κ opioid receptor [4] stood at 109 ± 4.84%; at μ-opioid receptors [5], 68.7 ± 4.1%.

As for `O=C(O)C[C@H]1C[C@@]2(O)[C@H]3Cc4ccc(O)cc4[C@@]2(CCN3CC2CC2)CC1=O` [Compound 9, 2-((4bR,7R,8aS,9R)-11-(cyclopropylmethyl)-3,8a-dihydroxy-6-oxo-6,7,8,8a,9,10-hexahydro-5H-9,4b-(epiminoethano)phenanthren-7-yl)acetic acid], the EC50 on μ-opioid receptors [1] was greater than 200000 nM; at κ opioid receptor [2] it was 17.3 ± 3.73 nM. The results for the Emax on μ-opioid receptors [1] and at κ opioid receptor [2] were -1% and 40.8 ± 1.93%, respectively. Besides, the Ki on μ-opioid receptors [3] was 6.18 ± 0.76 nM; in experiment [6], 0.97 ± 0.19 nM.

As for `O=C1C[C@]23CCN(CC4CC4)[C@H](Cc4ccc(O)cc42)[C@]3(O)C[C@@H]1CC(=O)N1CCC[C@H]1C(=O)O` [Compound 17, (S)-1-(2-((4bR,7R,8aS,9R)-11-(cyclopropylmethyl)-3,8a-dihydroxy-6-oxo-6,7,8,8a,9,10-hexahydro-5H-9,4b-(epiminoethano)phenanthren-7-yl)acetyl)pyrrolidine-2-carboxylic acid], at μ-opioid receptors [1], the EC50 is greater than 200000 nM and the Emax was determined as 0%. Also, the EC50 at κ opioid receptor [2] is greater than 200000 nM. Further, in experiment [6], the Ki is 128 ± 18.1 nM.

`C[C@H](NC(=O)C[C@H]1C[C@@]2(O)[C@H]3Cc4ccc(O)cc4[C@@]2(CCN3CC2CC2)CC1=O)C(=O)O` [Compound 15, (S)-2-(2-((4bR,7R,8aS,9R)-11-(cyclopropylmethyl)-3,8a-dihydroxy-6-oxo-6,7,8,8a,9,10-hexahydro-5H-9,4b-(epiminoethano)phenanthren-7-yl)acetamido)propanoic acid]: at μ-opioid receptors [1], the EC50 was determined as 43.8 ± 14.7 nM and the Emax worked out at 36.2 ± 3.75%. Besides, at κ opioid receptor [2], the EC50 was found to be 221 ± 59.4 nM and the Emax stood at 36 ± 2%. The Ki in experiment [6] was 191 ± 45.8 nM.

In the case of `CCOC(=O)C[C@H]1C[C@@]2(O)[C@H]3Cc4ccc(OC)cc4[C@@]2(CCN3CC2CC2)CC1=O` [Compound 1, ethyl 2-((4bR,7R,8aS,9R)-11-(cyclopropylmethyl)-8a-hydroxy-3-methoxy-6-oxo-6,7,8,8a,9,10-hexahydro-5H-9,4b-(epiminoethano)phenanthren-7-yl)acetate], at μ-opioid receptors [1], the half-maximal effective concentration (EC50) was determined as 3400 ± 584 nM and the Emax stood at 59.3 ± 3.38%. In addition, at κ opioid receptor [2], the EC50 was 5110 ± 1260 nM and the Emax came to 72 ± 3.21%. In experiment [6], the inhibition constant Ki was 408 ± 34.1 nM.

`COCC[C@H]1C[C@@]2(O)[C@H]3Cc4ccc(OC)cc4[C@@]2(CCN3CC2CC2)CC1=O` [Compound 49, (4bR,7S,8aS,9R)-11-(cyclopropylmethyl)-8a-hydroxy-3-methoxy-7-(2-methoxyethyl)-8,8a,9,10-tetrahydro-5H-9,4b-(epiminoethano)phenanthren-6(7H)-one]: the inhibition constant (Ki) at μ-opioid receptors [3] was 1960 ± 638 nM; in experiment [6], 324 ± 48 nM. On κ opioid receptor [4], the concentration giving a half-maximal response (EC50) was 1280 ± 160 nM. For the same molecule, on κ opioid receptor [4], the Emax amounted to 108 ± 5.57%.

Source of the values: patent publication US9388162B2, “Substituted morphinans and the use thereof” (Purdue Pharma L.P., priority 2012, dated 2016).
